Patent publication US20240376076A1, “INHIBITORS TARGETING UBIQUITIN SPECIFIC PROTEASE 7 (USP7)” (Dana-Farber Cancer Institute, Inc., priority 2021, published 2024)

Key:
[1] = mouse liver microsomal stability (Microsome Assay Protocol); type: in vitro ADME; settings: pH 7.4; mouse liver microsomes, NADPH, 37° C.; read-out: MLM t1/2, min
Protocol: ND refers to not disclosed.
• 1. Buffer A: 1.0 L of 0.1 M monobasic Potassium Phosphate buffer containing 1.0 mM EDTA Buffer B: 1.0 L of 0.1 M Dibasic Potassium Phosphate buffer containing 1.0 mM EDTA • Buffer C: 0.1 M Potassium Phosphate buffer, 1.0 mM EDTA, pH 7.4 by titrating 700 mL of buffer B with buffer A while monitoring with a pH meter. • 2. Reference compound (Ketanserin) and test compounds spiking solution: • 500 μM spiking solution: added 10 μL of 10 mM DMSO stock solution into 190 μL ACN. • 1.5 μM spiking solution in microsomes (0.75 mg/mL): added 1.5 μL of 500 μM spiking solution and 18.75 μL of 20 mg/mL liver microsomes into 479.75 μL of Buffer C on ice. • 3. Prepared NADPH stock solution (6 mM) by dissolving NADPH into buffer C. Dispensed 30 μL of 1.5 μM spiking solution containing 0.75 mg/mL microsomes solution to the assay plates designated for different time points (0-, 5-, 15-, 30-, 45-min) on ice. For 0-min, added 135 μL of ACN containing IS to the wells of 0-min plate and then added 15 μL of NADPH stock solution (6 mM). Pre-incubated all other plates at 37° C. for 5 minutes. Added 15 μL of NADPH stock solution (6 mM) to the plates to start the reaction and timing. At 5-min, 15-min, 30-min, and 45-min, added 135 μL of ACN containing IS to the wells of corresponding plates, respectively, to stop the reaction. After quenching, shook the plates at the vibrator (IKA, MTS 2/4) for 10 min (600 rpm/min) and then centrifuged at 5594 g for 15 min (Thermo Multifuge×3R). Transferred 50 μL of the supernatant from each well into a 96-well sample plate containing 50 μL of ultra pure water (Millipore, ZMQS50F01) for LC/MS analysis.

[2] = target: T1, USP7, Active human recombinant protein (Homo sapiens, UniProt Q93009); test: USP7 assay (Ubiquitin-Rhodamine 110 enzymatic assay); type: biochemical; settings: read-out: IC50
T1 construct: purchased CP Lot; 20200225001
How it was run: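 Kinetic 20-min fluorescence read (485/535 nm) of ubiquitin-rhodamine 110 (190 nM final) cleavage by 0.05 nM USP7 gave slopes. Compounds, 10 concentrations in 3-fold steps, had 15 min RT preincubation with enzyme first. Inhibition relative to max (enzyme+substrate) and min (substrate only) signals, fitted to IC50.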

T1 sequence (Q93009 whole entry): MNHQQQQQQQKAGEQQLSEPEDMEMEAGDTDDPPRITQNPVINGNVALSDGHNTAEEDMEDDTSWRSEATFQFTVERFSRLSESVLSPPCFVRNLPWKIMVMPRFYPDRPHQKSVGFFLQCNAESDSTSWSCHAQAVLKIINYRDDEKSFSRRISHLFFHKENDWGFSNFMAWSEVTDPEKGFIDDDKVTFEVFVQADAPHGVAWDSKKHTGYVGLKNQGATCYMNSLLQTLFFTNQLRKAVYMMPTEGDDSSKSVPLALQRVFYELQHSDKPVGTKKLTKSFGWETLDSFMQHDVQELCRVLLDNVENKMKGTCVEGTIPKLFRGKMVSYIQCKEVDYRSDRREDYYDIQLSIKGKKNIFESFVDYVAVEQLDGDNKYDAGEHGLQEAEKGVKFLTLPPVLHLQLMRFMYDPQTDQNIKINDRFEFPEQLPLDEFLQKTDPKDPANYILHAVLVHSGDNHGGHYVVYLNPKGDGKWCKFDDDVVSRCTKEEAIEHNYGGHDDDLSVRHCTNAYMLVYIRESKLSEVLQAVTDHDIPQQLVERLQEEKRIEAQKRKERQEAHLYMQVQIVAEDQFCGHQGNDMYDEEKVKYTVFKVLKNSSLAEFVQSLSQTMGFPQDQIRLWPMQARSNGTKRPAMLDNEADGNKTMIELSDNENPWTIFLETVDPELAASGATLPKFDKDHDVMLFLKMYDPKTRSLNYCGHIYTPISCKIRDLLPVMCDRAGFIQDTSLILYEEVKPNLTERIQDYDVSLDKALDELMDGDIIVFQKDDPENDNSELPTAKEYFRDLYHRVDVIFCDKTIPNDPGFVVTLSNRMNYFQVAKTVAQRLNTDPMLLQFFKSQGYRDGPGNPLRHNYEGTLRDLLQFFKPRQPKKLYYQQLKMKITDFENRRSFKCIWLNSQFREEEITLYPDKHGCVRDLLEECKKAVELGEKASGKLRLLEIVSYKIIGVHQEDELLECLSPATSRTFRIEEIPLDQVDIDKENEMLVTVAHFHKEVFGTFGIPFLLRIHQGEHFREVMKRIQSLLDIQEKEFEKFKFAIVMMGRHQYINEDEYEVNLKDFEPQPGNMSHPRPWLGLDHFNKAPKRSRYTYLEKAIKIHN

Row | SMILES | half-life at 1 µM [1] [min] | IC50 [2] [nM]
1 | Cn1nc2c(=O)n(CC3(O)CCN(C(=O)C(CCCNC(=O)c4ccc5c(Cl)ccnc5c4)Cc4ccccc4)CC3)cnc2c1-c1cccc(C#N)c1 (centres unmarked) [Compound 10, N-(4-benzyl-5-(4-((3-(3-cyanophenyl)-2-methyl-7-oxo-2,7-dihydro-6H-pyrazolo[4,3-d]pyrimidin-6-yl)methyl)-4-hydroxypiperidin-1-yl)-5-oxopentyl)-4-chloroquinoline-7-carboxamide] | 1.5 | 20 to 100
2 | O=C(NCCCC(Cc1ccccc1)C(=O)N1CCC(O)(Cn2cnc(NCCN3CCCC3)cc2=O)CC1)c1ccc2c(Cl)ccnc2c1 (centres unmarked) [Compound 11, N-(4-benzyl-5-(4-hydroxy-4-((6-oxo-4-(2-(pyrrolidin-1-yl)ethylamino)pyrimidin-1(6H)-yl)methyl)piperidin-1-yl)-5-oxopentyl)-4-chloroquinoline-7-carboxamide] | 12.1 | 20 to 100
3 | CN1CCN(CCC(=O)Nc2ccc3c(=O)n(CC4(O)CCN(C(=O)C(CCCNC(=O)c5ccc6c(Cl)cc(-c7cnn(CC(F)(F)F)c7)nc6c5)Cc5ccccc5)CC4)cnc3c2)CC1 (centres unmarked) [Compound 18, N-(4-benzyl-5-(4-hydroxy-4-((7-(3-(4-methylpiperazin-1-yl)propanamido)-4-oxoquinazolin-3(4H)-yl)methyl)piperidin-1-yl)-5-oxopentyl)-4-chloro-2-(1-(2,2,2-trifluoroethyl)-1H-pyrazol-4-yl)quinoline-7-carboxamide] | 21.2 | 20 to 100
4 | CN1CCN(CCC(=O)Nc2ccc3c(=O)n(CC4(O)CCN(C(=O)C(CCCNC(=O)c5ccc6c(Cl)cc(C7(F)CC7)nc6c5)Cc5ccccc5)CC4)cnc3c2)CC1 (centres unmarked) [Compound 21, N-(4-benzyl-5-(4-hydroxy-4-((7-(3-(4-methylpiperazin-1-yl)propanamido)-4-oxoquinazolin-3(4H)-yl)methyl)piperidin-1-yl)-5-oxopentyl)-4-chloro-2-(1-fluorocyclopropyl)quinoline-7-carboxamide] | 18.5 | > 1000
5 | CN1CCN(CCn2cc3ncn(CC4(O)CCN(C(=O)C(CCCNC(=O)c5ccc6c(Cl)ccnc6c5)Cc5ccccc5)CC4)c(=O)c3n2)CC1 (centres unmarked) [Compound 27] | 20 | > 1000
6 | CN1CCN(CC(=O)Nc2ccc3c(=O)n(CC4(O)CCN(C(=O)C(CCCNC(=O)c5ccc6c(Cl)ccnc6c5)Cc5ccccc5)CC4)cnc3c2)CC1 (centres unmarked) [Compound 29, N-(4-benzyl-5-(4-hydroxy-4-((7-(2-(4-methylpiperazin-1-yl)acetamido)-4-oxoquinazolin-3(4H)-yl)methyl)piperidin-1-yl)-5-oxopentyl)-4-chloroquinoline-7-carboxamide] | 16.7 | 20 to 100
7 | CN(C)CC(=O)Nc1ccc2c(=O)n(CC3(O)CCN(C(=O)C(CCCNC(=O)c4ccc5c(Cl)c6c(nc5c4)CN(C)C6)Cc4ccccc4)CC3)cnc2c1 (centres unmarked) [Compound 31, N-(4-benzyl-5-(4-((7-(2-(dimethylamino)acetamido)-4-oxoquinazolin-3(4H)-yl)methyl)-4-hydroxypiperidin-1-yl)-5-oxopentyl)-9-chloro-2-methyl-2,3-dihydro-1H-pyrrolo[3,4-b]quinoline-6-carboxamide] | 2.9 | 100 to 1000
8 | CN(C)CC(=O)Nc1ccc2c(=O)n(CC3(O)CCN(C(=O)C(CCCNC(=O)c4ccc5c(Cl)c6c(nc5c4)CCN(C)C6)Cc4ccccc4)CC3)cnc2c1 (centres unmarked) [Compound 32, N-(4-benzyl-5-(4-((7-(2-(dimethylamino)acetamido)-4-oxoquinazolin-3(4H)-yl)methyl)-4-hydroxypiperidin-1-yl)-5-oxopentyl)-10-chloro-2-methyl-1,2,3,4-tetrahydrobenzo[b][1,6]naphthyridine-7-carboxamide] | 2.5 | 20 to 100
9 | CC(=O)N1CCc2nc3cc(C(=O)NCCCC(Cc4ccccc4)C(=O)N4CCC(O)(Cn5cnc6cc(NC(=O)CN(C)C)ccc6c5=O)CC4)ccc3c(Cl)c2C1 (centres unmarked) [Compound 33, 2-acetyl-N-(4-benzyl-5-(4-((7-(2-(dimethylamino)acetamido)-4-oxoquinazolin-3(4H)-yl)methyl)-4-hydroxypiperidin-1-yl)-5-oxopentyl)-10-chloro-1,2,3,4-tetrahydrobenzo[b][1,6]naphthyridine-7-carboxamide] | 2.1 | < 20
10 | CN(C)CCC(=O)Nc1ccc2c(=O)n(CC3(O)CCN(C(=O)C(CCCNC(=O)c4ccc5c(Cl)c6c(nc5c4)CN(C)CC6)Cc4ccccc4)CC3)cnc2c1 (centres unmarked) [Compound 40, N-(4-benzyl-5-(4-((7-(3-(dimethylamino)propanamido)-4-oxoquinazolin-3(4H)-yl)methyl)-4-hydroxypiperidin-1-yl)-5-oxopentyl)-5-chloro-2-methyl-1,2,3,4-tetrahydrobenzo[b][1,7]naphthyridine-8-carboxamide] | 7.4 | 20 to 100
11 | CN(C)CCC(=O)Nc1ccc2c(=O)n(CC3(O)CCN(C(=O)C(CCCNC(=O)c4ccc5c(Cl)ccnc5n4)Cc4ccccc4)CC3)cnc2c1 (centres unmarked) [Compound 47, N-(4-benzyl-5-(4-((7-(3-(dimethylamino)propanamido)-4-oxoquinazolin-3(4H)-yl)methyl)-4-hydroxypiperidin-1-yl)-5-oxopentyl)-5-chloro-1,8-naphthyridine-2-carboxamide] | 12.4 | 20 to 100
12 | Cc1cc(Cl)c2ccc(C(=O)NCCCC(Cc3ccccc3)C(=O)N3CCC(O)(Cn4cnc5cc(NC(=O)CCN(C)C)ccc5c4=O)CC3)cc2n1 (centres unmarked) [Compound 49, N-(4-benzyl-5-(4-((7-(3-(dimethylamino)propanamido)-4-oxoquinazolin-3(4H)-yl)methyl)-4-hydroxypiperidin-1-yl)-5-oxopentyl)-4-chloro-2-methylquinoline-7-carboxamide] | 13.5 | < 20
13 | CN(C)CCC(=O)Nc1ccc2c(=O)n(CC3(O)CCN(C(=O)c4cn(CCNC(=O)c5ccc6c(Cl)ccnc6c5)nc4Cc4ccccc4)CC3)cnc2c1 [Compound 52, N-(2-(3-benzyl-4-(4-((7-(3-(dimethylamino)propanamido)-4-oxoquinazolin-3(4H)-yl)methyl)-4-hydroxypiperidine-1-carbonyl)-1H-pyrazol-1-yl)ethyl)-4-chloroquinoline-7-carboxamide] | 15.1 | 100 to 1000
14 | CN(C)CCC(=O)Nc1ccc2c(=O)n(CC3(O)CCN(C(=O)C4CN(CCNC(=O)c5ccc6c(Cl)ccnc6c5)CC4Cc4ccccc4)CC3)cnc2c1 (centres unmarked) [Compound 54] | 36.5 | 20 to 100
15 | CN(C)CCC(=O)Nc1ccc2c(=O)n(CC3(O)CCN(C(=O)c4cn(CCNC(=O)c5ccc6c(Cl)ccnc6c5)nc4-c4ccccc4)CC3)cnc2c1 [Compound 55, 4-chloro-N-(2-(4-(4-((7-(3-(dimethylamino)propanamido)-4-oxoquinazolin-3(4H)-yl)methyl)-4-hydroxypiperidine-1-carbonyl)-3-phenyl-1H-pyrazol-1-yl)ethyl)quinoline-7-carboxamide] | 35.6 | > 1000
16 | CN(C)CCC(=O)Nc1ccc2c(=O)n(CC3(O)CCN(C(=O)c4cn(CCNC(=O)c5ccc6c(Cl)ccnc6c5)nc4C4CC4)CC3)cnc2c1 [Compound 56, 4-chloro-N-(2-(3-cyclopropyl-4-(4-((7-(3-(dimethylamino)propanamido)-4-oxoquinazolin-3(4H)-yl)methyl)-4-hydroxypiperidine-1-carbonyl)-1H-pyrazol-1-yl)ethyl)quinoline-7-carboxamide] | 95.9 | > 1000
17 | O=C(CCN1CCOCC1)Nc1ccc2c(=O)n(CC3(O)CCN(C(=O)C(CCCNC(=O)c4ccc5c(Cl)ccnc5c4)Cc4ccccc4)CC3)cnc2c1 (centres unmarked) [Compound 60, N-(4-benzyl-5-(4-hydroxy-4-((7-(3-morpholinopropanamido)-4-oxoquinazolin-3(4H)-yl)methyl)piperidin-1-yl)-5-oxopentyl)-4-chloroquinoline-7-carboxamide] | 2.71 | 20 to 100
18 | O=C(CCn1ccnc1)Nc1ccc2c(=O)n(CC3(O)CCN(C(=O)C(CCCNC(=O)c4ccc5c(Cl)ccnc5c4)Cc4ccccc4)CC3)cnc2c1 (centres unmarked) [Compound 63, N-(5-(4-((7-(3-(1H-imidazol-1-yl)propanamido)-4-oxoquinazolin-3(4H)-yl)methyl)-4-hydroxypiperidin-1-yl)-4-benzyl-5-oxopentyl)-4-chloroquinoline-7-carboxamide] | 4.16 | 100 to 1000
19 | CN(C)CCC(=O)Nc1ccc2c(=O)n(CC3(O)CCN(C(=O)C(CCCNC(=O)c4ccc5c(Cl)cc(O)nc5c4)Cc4ccccc4)CC3)cnc2c1 (centres unmarked) [Compound 65] | 12.8 | 100 to 1000
